From patent US12479878B2, “Crystallization of 2′-FL” (Glycom A/S, priority 2020, dated 2025)

What was measured:
Format in all cases: physicochemical
[1] = Loss on drying of wet filter cake; details: for LoD relative to prior art: relative to WO 2016/095924 example 2 filter cake
Experimental: A sample of the slurry (75 ml) was collected and pressure filtered at 1 bar. Another sample of the slurry (75 ml) was collected, pressure filtered at 1 bar and the filter cake was washed with acetic acid (28 g). The washed and the unwashed solid wet filter cakes were dried overnight at 65° C. and 50 mbar generating loss on drying (LoD) of 17.3% and 23.2 respectively. The concentrations of 2′-FL and other impurities in the mother liquor as well as dried solids were assayed via HPLC. The unwashed dried crystalline material contained 95.3% of 2′-FL and yielded 81.5% of crystalline 2′-FL polymorph II, while the purity of the washed filter cake increased to 97.0%.
Then the filtration was continued for 60 sec. The so-obtained solid wet filter cake was dried overnight (14 hours) at 65° C. and 50 mbar, and loss of drying was determined (see data in the table below).

[2] = Pressure filtration of crystallization slurry (overall filtration rate); details: for filtration rate: 75 ml slurry pressure filtered at ΔP=1 bar, polypropylene filter cloth pore size about 3 μm, filtration area 13 cm^2, filtrate volume/(time·filter area); for filterability improvement relative to prior art: relative to WO 2016/095924 example 2 slurry
Experimental: A sample of the crystallization slurry (75 ml) after completing the crystallization from examples 1-3 above, respectively, and from the prior art (according to WO 2016/095924 example 2, with the difference that the procedure was conducted at 35° C. instead of room temperature and the concentrated syrup was of 62° Bx (140.2 g; containing 48.8 wt % of 2′-FL, 1.3 wt % of lactose and 5.4 wt % of DFL)) was collected and pressure filtered at ΔP=1 bar using a polypropylene filter cloth with a pore size of about 3 μm and a filtration area of 13 cm^2, and the time until the beginning of the liquid-gas mass transfer was measured. The filterability of the slurries was compared by calculating an overall filtration rate according to the following equation: filtrate volume [cm^3]/(time [sec]·filter area [cm^2]).

[3] = Residual AcOH content (Megazyme K-ACETRM 07/12); details: dried crystals
Experimental: (§1) The water content of dried crystal powder was measured by Karl-Fischer titration. Residual AcOH content was measured using Megazyme K-ACETRM 07/12.

[4] = Water content of dried crystal powder by Karl-Fischer titration; details: dried crystals
Experimental: as §1

[5] = unwashed solid wet filter cake dried overnight (14 hours) at 65° C. and 50 mbar
[6] = filter cake washed with acetic acid, dried overnight at 65° C. and 50 mbar

| SMILES | LoD relative to prior art [1] | LoD (loss on drying) [1, 5] | filtration rate [2] | filterability improvement relative to prior art [2] | AcOH content [3] | H2O content [4] | LoD (loss on drying) [1, 6] |
| --- | --- | --- | --- | --- | --- | --- | --- |
| C[C@@H]1OC(O[C@H]2[C@H](O[C@H]3[C@H](O)[C@@H](O)C(O)O[C@@H]3CO)O[C@H](CO)[C@H](O)[C@@H]2O)[C@@H](O)[C@H](O)[C@@H]1O (single isomer, unassigned) [Example 2, 2′-O-fucosyllactose] | 0.46-fold fold lower | 24.7% | 0.62 cm/s | 9.78x | 0.36 wt % | 0.05 wt % |  |
| C[C@@H]1OC(O[C@H]2[C@H](O[C@H]3[C@H](O)[C@@H](O)C(O)O[C@@H]3CO)O[C@H](CO)[C@H](O)[C@@H]2O)[C@@H](O)[C@H](O)[C@@H]1O (single isomer, unassigned) [Example 1, 2′-O-fucosyllactose] | 0.44-fold fold lower | 23.2% | 0.39 cm/s | 6.12x | 0.15 wt % | 0.06 wt % | 17.3% |
| C[C@@H]1OC(O[C@H]2[C@H](O[C@H]3[C@H](O)[C@@H](O)C(O)O[C@@H]3CO)O[C@H](CO)[C@H](O)[C@@H]2O)[C@@H](O)[C@H](O)[C@@H]1O (single isomer, unassigned) [Example 3, 2′-O-fucosyllactose] | 0.42-fold fold lower | 22.5% | 0.16 cm/s | 2.57x | 0.11 wt % |  | 16.1% |
| C[C@@H]1OC(O[C@H]2[C@H](O[C@H]3[C@H](O)[C@@H](O)C(O)O[C@@H]3CO)O[C@H](CO)[C@H](O)[C@@H]2O)[C@@H](O)[C@H](O)[C@@H]1O (stereo partly drawn) [WO 2016/095924, 2′-O-fucosyllactose, reference compound] |  | 52.9% | 0.064 cm/s |  | 0.58 wt % | 0.63 wt % |  |
| C[C@@H]1OC(O[C@H]2[C@H](O[C@H]3[C@H](O)[C@@H](O)C(O)O[C@@H]3CO)O[C@H](CO)[C@H](O)[C@@H]2O)[C@@H](O)[C@H](O)[C@@H]1O (single isomer, unassigned) [Example 4, 2′-O-fucosyllactose] |  | 48.5% |  |  |  |  |  |
